Data set [1] relates to cancer cell lines (HepG2, Hep3B, 293T, MCF-7, MDA-MB-231, K562, HEL, HL60, U251, U373MG, U87MG). Nature of the data set: Microscopic observation of growth inhibition and apoptosis, cancer cell lines. The class given is cell-based, human. As to conditions: 2 μM, 48 h.
Experimental: (§1) Liver cancer cell lines (HepG2, Hep3B), a human embryonic kidney cell line (293T), breast cancer cell lines (MCF-7, MDA-MB-231), blood tumor cell lines (K562, HEL, HL60), glioblastoma cell lines (U251, U373MG, U87MG), a mammary epithelial cell line (MCF10A), a lung epithelial cell line (BEAS2B), human mesenchymal stem cells (hMSCs), and mouse primary T cells (resting and activated T cells) were inoculated into 96-well plates at a density of 3,000 cells/well, supplemented with 50 μl of culture solution, and cultured at 37° C. and 5% CO2 for 1 h. […] After completion of the culture, cells were observed under an inverted phase contrast microscope and their morphological changes were imaged.
A further data set deals with MCF10A cell line. Nature of the data set: Electron microscopy of cell morphology, MCF10A. As to conditions: 2 μM, 24 and 48 h.
The test system of data set [2] is human mesenchymal stem cells (hMSC). In words: MTT cell viability, human mesenchymal stem cells. The conditions noted are these: increasing concentrations.
Data set [3] concerns BEAS2B and MCF10A normal epithelial cell lines. Nature of the data set: MTT cell viability / IC50, normal epithelial control cell lines.
Experimental: (§2) Liver cancer cell lines (HepG2, Hep3B) were inoculated into 96-well plates at a density of 3000 cells/well, and then 50 μl of culture solution was added thereto. Cells were cultured at 37° C. and 5% CO2 for 1 h. […] Cells were cultured at 37° C. and 5% CO2 for 24, 48, 72, and 96 h. After completion of the culture, the remaining culture solution was removed from the well plates, the cultures were diluted with MTT solution (3-(4,5-dimethylthiazol-2-yl)-2,5-diphenyltetrazole bromide) to a final density of 500 μg/ml, and cells were cultured at 37° C. and 5% CO2 for 3 h. The remaining MTT solution was removed and 150 μl of dimethyl sulfoxide (DMSO) was added. The reaction was carried out at room temperature for 20 min. After completion of the reaction, absorbance was measured using a microplate reader.
Data set [4] relates to human embryonic stem cells (hESCs, H9). In words: MTT cell viability, human embryonic stem cells co-cultured with MEFs. The conditions noted are these: increasing concentrations; co-culture with MEFs.
Text: MEF cells labeled with rhodamine were often used to distinguish them from hESC-derived cells.
For data set [5], the system named is normal cell lines (MCF10A, BEAS2B, hMSCs, mouse primary T cells). Nature of the data set: Microscopic observation of growth inhibition and apoptosis, normal cell lines. As to conditions: 2 μM, 48 h.
Experimental: as §1
The next data set has as its system MDA-MB-231 cell line. In words: MTT assay of FITC-conjugated peptides in MDA-MB-231. The format is cell-based, human. As to conditions: 0, 0.5, 1, 2, 3, 10 μM, 96 h.
Data set [6] has as its target T1, CP2c (Mus musculus, UniProt Q9ERA0).
T1 construct: 5 μg of the nuclear extract and an [α-32p] dCTP-labeled DNA probe; endogenous in cells; host or cells: MEL (murine erythroid leukemia) cells, HMBA-differentiated, nuclear extract
T1 sequence (Q9ERA0 1-502): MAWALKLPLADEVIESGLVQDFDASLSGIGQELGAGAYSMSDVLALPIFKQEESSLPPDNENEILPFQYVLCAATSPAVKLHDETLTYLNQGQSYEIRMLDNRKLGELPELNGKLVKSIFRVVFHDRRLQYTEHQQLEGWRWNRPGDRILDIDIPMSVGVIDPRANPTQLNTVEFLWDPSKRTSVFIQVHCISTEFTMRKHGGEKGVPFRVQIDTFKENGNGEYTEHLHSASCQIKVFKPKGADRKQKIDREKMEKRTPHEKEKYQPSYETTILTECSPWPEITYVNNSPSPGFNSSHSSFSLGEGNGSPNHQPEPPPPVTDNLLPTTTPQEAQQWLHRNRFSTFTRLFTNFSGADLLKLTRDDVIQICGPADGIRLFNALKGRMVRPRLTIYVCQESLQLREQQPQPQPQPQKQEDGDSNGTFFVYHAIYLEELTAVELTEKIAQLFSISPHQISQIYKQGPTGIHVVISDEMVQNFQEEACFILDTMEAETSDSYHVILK
In words: DNA immunoprecipitation (DIP) assay of CP2c-DNA binding. The conditions noted are these: 0.2, 0.5, and 1 μg peptide; MEL nuclear extract; α-globin promoter probe. Here is the method: To analyze whether the five peptides identified in Example 1.1 bind to CP2c in cells to affect the ability of CP2c to bind to DNA, DNA immunoprecipitation (DIP) assay was performed as disclosed in another preceding research conducted by the present inventors (Kim et al., A DNA immunoprecipitation assay used in quantitative detection of in vitro DNA-protein complex binding, Analytical Biochemistry. 2013; 441: 147-151).
In summary, the differentiation of a murine erythroid leukemia (MEL) cell line was induced by treatment with 5 mM hexamethylene bisacetamide (HMBA) and, on day 2 after differentiation, a cellular nuclear extract was separated. […]
Subsequently, 5 μg of the nuclear extract and an [α-32p] dCTP-labeled DNA probe (a sequence corresponding to the common CP2c binding site present in mouse α-globin promoter and between −156 and −124 in the start codon of the α-globin gene, see the paper of Kim et al. for details of the sequence) were allowed to react with a binding buffer (4% glycerol, 10 mM Tris-HCl, 1 mM DTT, 1 mM EDTA, and 0.1% NP-40) for 15 min, and gradually increasing amounts (0.2, 0.5, and 1 μg) of the identified CP2c binding peptides (Peptide 5, Peptide 8, Peptide 13, Peptide 21, and Peptide 31) were added thereto. […] The CP2c protein was removed from the DNA probe and the remaining amount of the DNA probe was measured using a scintillation counter. […]

The test system of data set [7] is CP2c. Nature of the data set: Direct ELISA of GST-fusion mutant CP2c proteins binding to peptide. The conditions noted are these: 19 Ala mutants of CP2c 306-396 region; detected with biotin-tagged Peptide 5-2CB. An excerpt: To support this assumption, a CP2c protein region with which Peptide 5-2C interacts and amino acids in the region directly binding to Peptide 5-2C need to be identified. Thus, an attempt was made to obtain mutant CP2c proteins in which polar amino acids present in the CP2c region binding with Peptide 5 shown in FIG. 1 were substituted with Ala and analyze the binding of the mutant CP2c proteins with Peptide 5-2C by enzyme-linked immunosorbent assay (ELISA). To facilitate this analysis, Peptide 5-2CB was synthesized in which biotin tag is bonded to the C-terminal Pro residue of Peptide 5-2C. To confirm whether Peptide 5-2CB induces cancer cell-specific growth interruption and apoptosis, like Peptide 5-2C, MTT assay was conducted on two different batches of Peptide 5-2CB in MDA-MB-231 cell line and MCF7 cell line by the same method as in Example 5.1. IC50 values were also calculated from the results of MTT assay. To obtain 19 mutant CP2c proteins in which polar amino acids present in the CP2c region binding with Peptide 5-2C were substituted with Ala, oligonucleotides having sequences encoding the corresponding mutant amino acids were synthesized and site-directed mutagenesis was carried out. The base sequences encoding the mutant CP2c genes were cloned into the pGEX4 vector and mutant GST-fusion CP2c proteins were purified using beads bound with antibody against GST-tag. […]

Data set [8] relates to breast cancer cell lines (MCF7, MDA-MB-231). In words: MTT cell viability, breast cancer cell lines. The class given is cell-based, human. The conditions noted are these: increasing concentrations.
Experimental: as §2
The subject of data set [9] is glioblastoma cell lines (U343, U87MG). In words: MTT cell viability with Peptide 5-2D, glioblastoma cell lines. The conditions noted are these: increasing concentrations. The class given is cell-based, human.
Experimental: as §2
The subject of data set [10] is colon cancer cell lines (HCT116, HT29). In words: MTT cell viability with Peptide 5-2D, colon cancer cell lines. The class given is cell-based, human. The conditions noted are these: increasing concentrations.
Experimental: as §2
Data set [11] relates to 293T and HepG2 cell lines. In words: MTT cell viability with Peptide 5-2D, 293T and HepG2. The conditions noted are these: increasing concentrations. The class given is cell-based, human.
Experimental: as §2
Data set [12] has as its system human blood cancer cell lines (U937, Jurkat, HL60, HEL). In words: MTT cell viability with Peptide 5-2D, human blood cancer cell lines. The format is cell-based. As to conditions: increasing concentrations.
Experimental: as §2
In data set [13] the test system is BEAS2B and MCF10A normal epithelial cell lines.
Experimental: as §2

Where two headings read alike, the source gives them in different places.

Experimental for MCF10A cell line: 1.5×10^6 cells of MDA-MB-231 cell line and 5×10^5 cells of MCF10A cell line were inoculated into 100 mm dishes. […] After culture for 24 and 48 h, cells were collected. The culture solution was centrifuged and surface adherent cells were collected by trypsin treatment. The collected cells were washed once with physiological saline. The cell sediment was directly treated twice with 2.5% aqueous glutaraldehyde solution (each for 10 min). Samples for electron microscopy were prepared and imaged in accordance with general methods.

For `CCOc1ccccc1C1CC(=O)Nc2cc3c(cc21)OCO3` (centres unmarked) [FQI1, Factor Quinolinone Inhibitor 1], the “growth inhibition and apoptosis induction of cancer cell lines (microscopy)” value in data set [1] is “inhibited the growth of the normal cell lines as well as the cancer cell lines in a concentration-dependent manner and induced apoptosis”. The “intracellular structural abnormalities in MCF10A (electron microscopy)” value in the data set on MCF10A cell line is listed as “considerable nuclear disruption was observed at 48 h”. The “cytotoxicity (MTT) in hMSC” value in data set [2] was “concentration-dependent cytotoxicity”. Moreover, in data set [3] (48 h, MTT), the “growth inhibition and apoptosis induction of normal control cell lines (IC50 calculation)” value was “inhibited cell growth and induced apoptosis”. Also, the “cytotoxicity (MTT) in MCF10A and BEAS2B” value in data set [3] (increasing concentrations up to 10 μM) is “concentration-dependent cytotoxicity”. In addition, the “cytotoxicity (MTT) in hESCs” value in [4] was “concentration-dependent cytotoxicity”. The “effect on normal cell lines (microscopy)” value in [5] is “inhibited the growth of the normal cell lines”.

Regarding “FITC-iRGD: FITC fluorescently labeled iRGD peptide (CRGDKGPDC)”, the “cell growth (MTT) in MDA-MB-231” value with MDA-MB-231 cell line is recorded as “only the FITC-conjugated Peptide 5-2C inhibited cell growth”.

As to NYPQRP [Peptide 5-2], the “inhibition of CP2c-DNA binding (DIP assay)” value with CP2c [6] is “specifically inhibited the binding between CP2c and DNA”. Further, the “CP2c amino acids important for peptide binding” value with CP2c [7] is “E332, R339, R341 and R347 amino acid are important for binding to Peptide 5-2”.

For “dNP2 peptide sequence (KIKKVKKKGRKGSKIKKVKKKGRKGG) linked to the N-terminal Asn residue of Peptide 5-2 [Peptide 5-2D]”, the “relative viability (MTT), breast cancer cell lines, compared with Peptide 5-2C” value in data set [8] was “inhibited the growth of the breast cancer cell lines and efficiently induced apoptosis, similarly to Peptide 5-2C”. The “relative viability (MTT), U343 and U87MG, compared with Peptide 5-2C” value in data set [9] is “inhibited the growth of the glioblastoma cell lines and efficiently induced apoptosis, similarly to Peptide 5-2C”. The “relative viability (MTT), HCT116 and HT29, compared with Peptide 5-2C” value in data set [10] is “inhibited the growth of the glioblastoma cell lines and efficiently induced apoptosis, similarly to Peptide 5-2C”. The “relative viability (MTT), 293T and HepG2, compared with Peptide 5-2C” value in data set [11] was “inhibited the growth of the human embryonic kidney cancer cell line and liver cancer cell line and efficiently induced apoptosis, similarly to Peptide 5-2C”. Further, in [12], the “relative viability (MTT), U937, Jurkat, HL60, HEL, compared with Peptide 5-2C” value is “inhibited the growth of the human embryonic kidney cancer cell line and the liver cancer cell line and efficiently induced apoptosis, similarly to Peptide 5-2C”. In addition, in [13], the “growth inhibition and apoptosis induction of normal control cell lines (IC50 calculation)” value was “did not substantially affect the growth inhibition of the normal control cell lines and the induction of apoptosis”; the “relative viability (MTT), MCF10A and BEAS2B, compared with Peptide 5-2C” value is “did not affect the growth of the mammary epithelial cell line and the lung epithelial cell line and apoptosis, similarly to Peptide 5-2C”.

Source of the values: patent US10611797B2, “Peptide having anticancer activity, and pharmaceutical composition and dietary supplement composition for preventing and treating cancer, both of which contain same as active ingredient” (IUCF-HYU (INDUSTRY-UNIVERSITY COOPERATION FOUNDATION …, priority 2015, dated 2020).
